Converted amounts (≈) assume the structure as drawn. Square brackets hold non-standard residues; d marks the D form. Ends that are not written are not given here. Peptide text beside a SMILES is read from it.

Usually MBC stands for the smallest concentration meeting the test's criterion for killing. The low end stands for more potent killing, the high end for less potent killing. As usually defined, the MIC is the least concentration at which growth counts as inhibited.

For test [1], the system named is Listeria ivanovii (Li4pVS2). As to the kind of experiment: MBC, plating of MIC wells on agar. Type of test: cell-based. Particulars: free peptide in solution; MIC well and 4 wells above plated on agar, overnight; lowest concentration with at least 99.99% decrease; triplicate. The method, then: (§1) Non-pathogenic bacteria Listeria ivanovii Li4pVS2 (Courtesy of Prof. J.-M. Berjeaud, Poitiers University, Poitiers, France) were used to investigate the antibacterial activity of the modified surfaces. Bacterial suspensions were prepared from frozen cultures incubated overnight (37 °C under agitation at 250 rpm) in brain heart infusion (BHI) broth (BD Difco, Franklin Lakes, NJ, USA). After centrifugation at 10,000× g for 5 min and elimination of the liquid phase (supernatant) the bacteria were redisposed in NaCl 0.9% solution up to a concentration of to 2 × 10^6 colony forming unity (CFU) per mL, verified by measuring the OD620nm = 0.02.
(§2) MIC values of temporin analogs were determined using a liquid growth inhibition assay. An exponential-phase bacterial culture of Listeria ivanovii was diluted in BHI broth to an OD of 0.02 (2 × 10^6 CFU/mL). A volume of 100 μL of this bacterial suspension was mixed with 100 μL of 2-fold serial aqueous dilutions of each temporin (final concentrations from 0.78 to 100 µM). The bacterial growth was monitored by measuring the OD change during overnight incubation. MIC and MBC tests were carried out in triplicate with positive (0.7% formaldehyde) and negative (saline NaCl 0.9% solution) controls. […] The bacterial suspension corresponding to the MIC well and 4 wells above MIC were collected and deposited on agar plate in order to determine the minimal bactericidal concentration (MBC). The MBC is expressed as the lowest concentration for which a decrease of at least 99.99% is observed on agar plates after overnight incubation.

In test [2] the test system is Listeria ivanovii (Li4pVS2). The experiment in a line: MIC, liquid growth inhibition assay of free temporins in solution. Type of test: cell-based. Particulars: free peptide in solution; BHI broth, 2 × 10^6 CFU/mL, 2-fold serial dilutions, overnight incubation, OD read-out; lowest concentration that completely inhibits growth; triplicate. The protocol: as §1, §2

With `CC[C@@H](C)[C@@H](NC(=O)CNC(=O)[C@@H](CCCCN)NC(=O)[C@@H](CC(C)C)NC(=O)[C@H](N)Cc1ccccc1)C(=O)N[C@@H](C(=O)NCC(=O)N[C@H](CCSC)C(=O)N[C@H](CC(C)C)C(=O)NCC(=O)N[C@H](CCCCN)C(=O)N[C@H](CC(C)C)C(=O)N[C@H](Cc1ccccc1)C(N)=O)C(C)C` [D-[K^3]SHa, D-[K^3]temporin-SHa] (H-[dF][dL][dK]G[dI][dV]G[dM][dL]G[dK][dL][dF]-NH2; N-terminus assumed), in test [1], the minimum bactericidal concentration (MBC) worked out at 3.12 µM (≈ 4.44 µg/mL). Besides, in test [2], the minimal inhibitory concentration (MIC) was 1.56 µM (≈ 2.22 µg/mL).

Compound “FLSGIVGMLGKLF-NH2 [SHa, Temporin-SHa, reference compound]” returned an MBC in test [1] of 6 µM. Besides, in test [2], the MIC came out at 6 µM.

“FAKGIAGMAGKLF [[A^2,6,9, K^3]SHa-COOH, [A^2,6,9, K^3]temporin-SHa-COOH]” gave an MBC in test [1] of 256 µM.

In the case of “FLKGIVGMLGKLF-NH2 [[K^3]SHa, [K^3]temporin-SHa]”, in test [1], the MBC is given as 3.12 µM. The MIC in test [2] was 1.56 µM.

“FASGIAGMAGKLF-NH2 [[A^2,6,9]SHa, [A^2,6,9]temporin-SHa]” came in with a minimal bactericidal concentration (MBC) in test [1] above 200 µM.

Take “FAKGIAGMAGKLF-NH2 [[A^2,6,9, K^3]SHa, [A^2,6,9, K^3]temporin-SHa]”: the MBC in test [1] is above 200 µM.

With “FLKGIVGMLGKLF [[K^3]SHa-COOH, [K^3]temporin-SHa-COOH]”, the MBC in test [1] is on record as 128 µM. Moreover, in test [2], the minimum inhibitory concentration (MIC) was 64 µM.

(Values after paper PMC6412374, “Engineering of Antimicrobial Surfaces by Using Temporin Analogs to Tune the Biocidal/antiadhesive Effect” (Molecules, 2019).)
